Measurements as given in US9399649B2, “Compounds for treating spinal muscular atrophy” (PTC Therapeutics Inc., priority 2012, dated 2016).

How the values were obtained:
[1] = tested on: full length SMN2 minigene mRNA containing SMN2 exon 7; assay: SMN2 minigene mRNA splicing RT-qPCR assay in cultured cells; format: cell-based, human; settings: Homo sapiens, HEK293-H; HEK293H cells stably transfected with SMN2-A minigene, 24 hours, 7-point concentration curve; concentration giving 1.5-fold full length SMN2 mRNA vs vehicle; read-out: EC1.5x for production of full length SMN2 mRNA
In short: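 Read-out is minigene FL mRNA (exon 7 included) relative to vehicle, from efficiency-corrected ΔΔCt with GAPDH normalisation. Primers and probe span exon 7, exon 8 and luciferase, so endogenous SMN is not detected. Stable SMN2-A minigene HEK293H cells, 24 h compound exposure at 37 °C, 7-point curve in duplicate.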

Smn protein = Smn protein assay in cultured cells (SMN HTRF); format: cell-based, human; settings: SMA patient fibroblast cells (GM03813), 48 hours; for maximum fold (Fold) increase of Smn protein: 7-point concentration data, relative to vehicle control; for EC1.5x for Smn protein expression: 7-point concentration curve, concentration producing 1.5 times Smn protein vs DMSO vehicle
In short: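 Smn protein measured by HTRF (anti-SMN d2/kryptate) in lysates of SMA patient fibroblasts after 48 h compound treatment, 7-point 3.16-fold dilutions, triplicates. The 665/620 nm ratio is blank-corrected to ΔF, then divided by the vehicle ΔF to give fold increase.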

| Compound | melting point | EC (1.5-fold) [1] [µM] | maximum fold (Fold) increase of Smn protein (Smn protein) | EC1.5x for Smn protein expression (Smn protein) |
| --- | --- | --- | --- | --- |
| C[C@H]1CN(c2ccc3cc(-c4cn5cccc(Cl)c5n4)oc(=O)c3c2)CCN1 [Cpd 60, 3-(8-chloroimidazo[1,2-a]pyridin-2-yl)-7-[(3S)-3-methylpiperazin-1-yl]-1H-isochromen-1-one] | 314 to 316 °C | 0.3 to 1 | *** (a fold increase between >1.35 and ≦1.5 is indicated by three stars (***)) |  |
| CN1CCN(c2ccc3cc(-c4cn5cccc(Cl)c5n4)oc(=O)c3c2)CC1 [Cpd 61, 3-(8-chloroimidazo[1,2-a]pyridin-2-yl)-7-(4-methylpiperazin-1-yl)-1H-isochromen-1-one] | 240 °C (dec.) | 1 to 3 | * (A maximum fold increase of ≦1.2 is indicated by one star (*)) |  |
| Cc1cn2cc(-c3cc4ccc(N5CCN[C@@H](C)C5)cc4c(=O)o3)nc2c(C)n1 [Cpd 63, 3-(6,8-dimethylimidazo[1,2-a]pyrazin-2-yl)-7-[(3S)-3-methylpiperazin-1-yl]-1H-isochromen-1-one] | 325 to 327 °C | ≤ 0.1 | ***** (a fold increase >1.65 is indicated by five stars (*****)) | **** (an EC1.5×≦0.3 nM is indicated by four stars (****)) |
| Cc1cn2cc(-c3cc4ccc(N5C[C@@H](C)N[C@@H](C)C5)cc4c(=O)o3)nc2c(C)n1 [Cpd 64, 3-(6,8-dimethylimidazo[1,2-a]pyrazin-2-yl)-7-[(3R,5S)-3,5-dimethylpiperazin-1-yl]-1H-isochromen-1-one] | 244 to 246 °C | ≤ 0.1 | ***** (a fold increase >1.65 is indicated by five stars (*****)) | **** (an EC1.5×≦0.3 nM is indicated by four stars (****)) |
| Cc1cn2cc(-c3cc4ccc(N5CCN(C)[C@@H](C)C5)cc4c(=O)o3)nc2c(C)n1 [Cpd 66, 3-(6,8-dimethylimidazo[1,2-a]pyrazin-2-yl)-7-[(3S)-3,4-dimethylpiperazin-1-yl]-1H-isochromen-1-one] | 255 to 256 °C | ≤ 0.1 | ***** (a fold increase >1.65 is indicated by five stars (*****)) | **** (an EC1.5×≦0.3 nM is indicated by four stars (****)) |
| COc1ccc(-c2cc3ccc(N4CCN(C)[C@@H](C)C4)cc3c(=O)o2)cc1OC [Cpd 67, 3-(3,4-dimethoxyphenyl)-7-[(3S)-3,4-dimethylpiperazin-1-yl]-1H-isochromen-1-one] | 138 to 140 °C | 0.3 to 1 | *** (a fold increase between >1.35 and ≦1.5 is indicated by three stars (***)) | ** (an EC1.5× between >1 μM, and ≦3 nM is indicated by two stars (**)) |
| Cc1cn2cc(-c3cc4ccc(N5CCN6CCC[C@@H]6C5)cc4c(=O)o3)nc2cn1 [Cpd 68, 7-[(8aR)-hexahydropyrrolo[1,2-a]pyrazin-2(1H)-yl]-3-(6-methylimidazo[1,2-a]pyrazin-2-yl)-1H-isochromen-1-one] | 255 to 257 °C | ≤ 0.1 | **** (a fold increase between >1.5 and ≦1.65 is indicated by four stars (****)) | * (An EC1.5× for Smn protein expression between >3 μM and <10 μM is indicated by one star (*)) |
| Cc1cn2cc(-c3cc4ccc(N5CCN[C@H](C)C5)cc4c(=O)o3)nc2c(C)n1 [Cpd 71, 3-(6,8-dimethylimidazo[1,2-a]pyrazin-2-yl)-7-[(3R)-3-methylpiperazin-1-yl]-1H-isochromen-1-one] | 331 to 333 °C | ≤ 0.1 | ***** (a fold increase >1.65 is indicated by five stars (*****)) | **** (an EC1.5×≦0.3 nM is indicated by four stars (****)) |

The next lines start with results.

| melting point | Compound | EC (1.5-fold) [1] [µM] | maximum fold (Fold) increase of Smn protein (Smn protein) | EC1.5x for Smn protein expression (Smn protein) |
| --- | --- | --- | --- | --- |
| 252 to 254 °C | Cc1cn2cc(-c3cc4ccc(N5CCN(C)[C@H](C)C5)cc4c(=O)o3)nc2c(C)n1 [Cpd 72, 3-(6,8-dimethylimidazo[1,2-a]pyrazin-2-yl)-7-[(3R)-3,4-dimethylpiperazin-1-yl]-1H-isochromen-1-one] | ≤ 0.1 | ***** (a fold increase >1.65 is indicated by five stars (*****)) | *** (an EC1.5× between >0.3 nM and ≦1 nM is indicated by three stars (***)) |
| 238 to 240 °C | CCN1CCN(c2ccc3cc(-c4cn5cc(C)nc(C)c5n4)oc(=O)c3c2)CC1 [Cpd 73, 3-(6,8-dimethylimidazo[1,2-a]pyrazin-2-yl)-7-(4-ethylpiperazin-1-yl)-1H-isochromen-1-one] | ≤ 0.1 | ***** (a fold increase >1.65 is indicated by five stars (*****)) | **** (an EC1.5×≦0.3 nM is indicated by four stars (****)) |
| 260 to 262 °C | Cc1cn2cc(-c3cc4ccc(N5CCN(C(C)C)CC5)cc4c(=O)o3)nc2c(C)n1 [Cpd 74, 3-(6,8-dimethylimidazo[1,2-a]pyrazin-2-yl)-7-[4-(propan-2-yl)piperazin-1-yl]-1H-isochromen-1-one] | ≤ 0.1 | ***** (a fold increase >1.65 is indicated by five stars (*****)) | **** (an EC1.5×≦0.3 nM is indicated by four stars (****)) |
| 248 to 250 °C | Cc1cn2cc(-c3cc4ccc(N5CCN(CCO)CC5)cc4c(=O)o3)nc2c(C)n1 [Cpd 75, 3-(6,8-dimethylimidazo[1,2-a]pyrazin-2-yl)-7-[4-(2-hydroxyethyl)piperazin-1-yl]-1H-isochromen-1-one] | ≤ 0.1 | ***** (a fold increase >1.65 is indicated by five stars (*****)) | *** (an EC1.5× between >0.3 nM and ≦1 nM is indicated by three stars (***)) |
| 219 to 221 °C | Cc1cn2cc(-c3cc4ccc(N5CCN(C)CC5)cc4c(=O)o3)cc2c(C)n1 [Cpd 76, 3-(1,3-dimethylpyrrolo[1,2-a]pyrazin-7-yl)-7-(4-methylpiperazin-1-yl)-1H-isochromen-1-one] | ≤ 0.1 | *** (a fold increase between >1.35 and ≦1.5 is indicated by three stars (***)) | ** (an EC1.5× between >1 μM, and ≦3 nM is indicated by two stars (**)) |
| 202 to 204 °C | CCN1CCN(c2ccc3cc(-c4cc5c(C)nc(C)cn5c4)oc(=O)c3c2)CC1 [Cpd 77, 3-(1,3-dimethylpyrrolo[1,2-a]pyrazin-7-yl)-7-(4-ethylpiperazin-1-yl)-1H-isochromen-1-one] | ≤ 0.1 | *** (a fold increase between >1.35 and ≦1.5 is indicated by three stars (***)) | *** (an EC1.5× between >0.3 nM and ≦1 nM is indicated by three stars (***)) |
| 213 to 215 °C | Cc1cn2cc(-c3cc4ccc(N5CCN(C(C)C)CC5)cc4c(=O)o3)cc2c(C)n1 [Cpd 78, 3-(1,3-dimethylpyrrolo[1,2-a]pyrazin-7-yl)-7-[4-(propan-2-yl)piperazin-1-yl]-1H-isochromen-1-one] | ≤ 0.1 | *** (a fold increase between >1.35 and ≦1.5 is indicated by three stars (***)) |  |
| 240 to 242 °C | Cc1cn2cc(-c3cc4ccc(N5CCN(CCO)CC5)cc4c(=O)o3)cc2c(C)n1 [Cpd 79, 3-(1,3-dimethylpyrrolo[1,2-a]pyrazin-7-yl)-7-[4-(2-hydroxyethyl)piperazin-1-yl]-1H-isochromen-1-one] | ≤ 0.1 | **** (a fold increase between >1.5 and ≦1.65 is indicated by four stars (****)) | **** (an EC1.5×≦0.3 nM is indicated by four stars (****)) |
| 220 to 222 °C | Cc1cn2cc(-c3cc4ccc(N5CCN6CCC[C@H]6C5)cc4c(=O)o3)cc2c(C)n1 [Cpd 80, 3-(1,3-dimethylpyrrolo[1,2-a]pyrazin-7-yl)-7-[(8aS)-hexahydropyrrolo[1,2-a]pyrazin-2(1H)-yl]-1H-isochromen-1-one] | ≤ 0.1 | **** (a fold increase between >1.5 and ≦1.65 is indicated by four stars (****)) | **** (an EC1.5×≦0.3 nM is indicated by four stars (****)) |
| 218 to 220 °C | Cc1cn2cc(-c3cc4ccc(N5CCN6CCC[C@@H]6C5)cc4c(=O)o3)cc2c(C)n1 [Cpd 81, 3-(1,3-dimethylpyrrolo[1,2-a]pyrazin-7-yl)-7-[(8aR)-hexahydropyrrolo[1,2-a]pyrazin-2(1H)-yl]-1H-isochromen-1-one] | ≤ 0.1 | ***** (a fold increase >1.65 is indicated by five stars (*****)) | **** (an EC1.5×≦0.3 nM is indicated by four stars (****)) |
| 244 to 246 °C | CCCN1CCN(c2ccc3cc(-c4cn5cc(C)nc(C)c5n4)oc(=O)c3c2)CC1 [Cpd 82, 3-(6,8-dimethylimidazo[1,2-a]pyrazin-2-yl)-7-(4-propylpiperazin-1-yl)-1H-isochromen-1-one] | ≤ 0.1 | ***** (a fold increase >1.65 is indicated by five stars (*****)) | **** (an EC1.5×≦0.3 nM is indicated by four stars (****)) |
